In general, IC50 refers to the concentration needed to halve the response being measured. Low values mean greater potency in that assay, high ones weaker potency in that assay. As usually defined, the inhibition is how much of the control response was suppressed.

The results in this text go back to article PMC12206033, “Selective inhibition of TRPV3 channel by natural rosmarinic acid and its analogs for alleviation of skin lesions through downregulation of NF-κB pathway” (The Journal of Biological Chemistry, 2025).

Assay type in all cases: cell-based
One test concerns the target T1, TRPV3 T665A (Homo sapiens, UniProt Q8NET8, T665A).
T1 construct: expressed in transfected cells; host or cells: HEK293T
T1 sequence (Q8NET8 1-790 T665A): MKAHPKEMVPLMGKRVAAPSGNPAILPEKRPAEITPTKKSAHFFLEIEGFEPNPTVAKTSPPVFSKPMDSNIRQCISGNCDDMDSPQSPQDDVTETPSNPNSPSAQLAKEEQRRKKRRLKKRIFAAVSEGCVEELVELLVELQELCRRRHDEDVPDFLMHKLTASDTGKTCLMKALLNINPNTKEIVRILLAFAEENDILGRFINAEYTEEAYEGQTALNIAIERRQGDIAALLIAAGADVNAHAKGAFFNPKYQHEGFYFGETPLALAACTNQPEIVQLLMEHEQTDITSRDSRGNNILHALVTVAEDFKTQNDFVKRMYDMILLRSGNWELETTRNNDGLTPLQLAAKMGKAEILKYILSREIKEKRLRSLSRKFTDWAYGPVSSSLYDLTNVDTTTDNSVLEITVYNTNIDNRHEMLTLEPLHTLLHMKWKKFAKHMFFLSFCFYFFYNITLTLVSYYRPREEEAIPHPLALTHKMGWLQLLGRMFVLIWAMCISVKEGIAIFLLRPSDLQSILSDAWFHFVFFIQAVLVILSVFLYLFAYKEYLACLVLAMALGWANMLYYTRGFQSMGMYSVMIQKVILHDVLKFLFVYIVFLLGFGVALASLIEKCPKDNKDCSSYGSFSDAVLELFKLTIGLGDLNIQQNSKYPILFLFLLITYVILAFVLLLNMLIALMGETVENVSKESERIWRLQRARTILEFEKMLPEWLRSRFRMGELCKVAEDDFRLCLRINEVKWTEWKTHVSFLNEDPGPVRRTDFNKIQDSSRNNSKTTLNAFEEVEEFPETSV
The test is described as follows: single-channel inside-out patch recordings of TRPV3 T665A mutant. Conditions: ROSA 100 μM co-applied with 2-APB 50 μM; n = 4. The method, then: (§1) HEK293T cell line was obtained from the Cell Resource Center, Peking Union Medical College. HEK293T cells were maintained in Dulbecco’s modified Eagle’s medium (DMEM, Gibco) supplemented with 10% fetal bovine serum at 37 °C with 5% CO2. […] The next day, determine the plasmid transfection status by observing green fluorescence based on expression of enhanced GFP as an indicator. […] When conducting experiments on HEK293T cells transfected with G573S point mutant TRPV3 plasmid, we replaced culture medium with or without compounds after 4 h of transfection and then observed green fluorescence of HEK293T cell after 10 h. As for the relative fluorescence intensity, we convert the image to 8 bit grayscale using ImageJ (Https://imagej.net/software/fiji/downloads) and set an appropriate threshold value to reduce background noise and enhance the image contrast.
(§2) All patch-clamp recordings were conducted 16 to 24 h after transfection using an EPC10 amplifier powered by PatchMaster software (HEKA) (https://www.heka.com/downloads/downloads_main.html#down_patchmaster) at room temperature. […] Currents were recorded at a potential ramp from −100 mV to +100 mV for 1000 ms with 1000-ms intervals (for whole-cell recordings) or a persistent potential of −60 mV (inside-out patch recordings). […]

In a further test the target is T2, hTRPV3 (Homo sapiens, UniProt Q8NET8).
T2 construct: expressed in transfected cells; host or cells: HEK293T
T2 sequence (Q8NET8 1-790): T1 sequence (Q8NET8 1-790 T665A) with A665T
The test is described as follows: whole-cell patch-clamp of hTRPV3 currents in HEK293T cells activated by 2-APB. Conditions: for inhibition at 50 µM: agonist 2-APB 50 μM. The method, then: HEK293T cell line was obtained from the Cell Resource Center, Peking Union Medical College. HEK293T cells were maintained in Dulbecco’s modified Eagle’s medium (DMEM, Gibco) supplemented with 10% fetal bovine serum at 37 °C with 5% CO2. HEK293T cells were seeded onto glass coverslips 1 day in advance and transiently transfected with […] complementary deoxyribonucleic acids of human TRPV3 (hTRPV3, accession number NM_145068.4), hTRPV1 (accession number NM_080704.3), mTRPV2 (accession number NM_011706.2), hTRPV4 (accession number NM_021625.5), hTRPA1 (accession number NM_007332.3), and hTRPM8 (accession number NM_024080.5) through Lipofectamine 2000 (Invitrogen) following the manufacture’s protocol. The next day, determine the plasmid transfection status by observing green fluorescence based on expression of enhanced GFP as an indicator. All WT or mutant hTRPV3 complementary deoxyribonucleic acid plasmids were confirmed by DNA sequencing. When conducting experiments on HEK293T cells transfected with G573S point mutant TRPV3 plasmid, we replaced culture medium with or without compounds after 4 h of transfection and then observed green fluorescence of HEK293T cell after 10 h. As for the relative fluorescence intensity, we convert the image to 8 bit grayscale using ImageJ (Https://imagej.net/software/fiji/downloads) and set an appropriate threshold value to reduce background noise and enhance the image contrast.
All patch-clamp recordings were conducted 16 to 24 h after transfection using an EPC10 amplifier powered by PatchMaster software (HEKA) (https://www.heka.com/downloads/downloads_main.html#down_patchmaster) at room temperature. The borosilicate glass pipettes were pulled using a DMZ universal electrode puller (Zeitz-Instruments GmbH) to achieve the resistances of three to 5 MΩ (for whole-cell recordings) or five to 9 MΩ (for inside-out patch recordings). Currents were recorded at a potential ramp from −100 mV to +100 mV for 1000 ms with 1000-ms intervals (for whole-cell recordings) or a persistent potential of −60 mV (inside-out patch recordings). Both pipette solution and bath solution contained (in mM): 130 NaCl, 3 Hepes, and 0.2 EDTA (pH = 7.2–7.4). All recording data were analyzed using Igor Pro (Wave-metrics) (https://www.wavemetrics.com/order/order_igordownloads.htm) and Origin 8.6 (Origin Lab) (https://www.originlab.com/doc/zh/Quick-Help/Download-Installer).
(The patch-clamp technique gives a direct electrical read-out from membranes.)

For another test, the target named is T3, hTRPM8 (Homo sapiens, UniProt Q7Z2W7).
T3 construct: expressed in transfected cells; host or cells: HEK293T
T3 sequence (Q7Z2W7 whole entry): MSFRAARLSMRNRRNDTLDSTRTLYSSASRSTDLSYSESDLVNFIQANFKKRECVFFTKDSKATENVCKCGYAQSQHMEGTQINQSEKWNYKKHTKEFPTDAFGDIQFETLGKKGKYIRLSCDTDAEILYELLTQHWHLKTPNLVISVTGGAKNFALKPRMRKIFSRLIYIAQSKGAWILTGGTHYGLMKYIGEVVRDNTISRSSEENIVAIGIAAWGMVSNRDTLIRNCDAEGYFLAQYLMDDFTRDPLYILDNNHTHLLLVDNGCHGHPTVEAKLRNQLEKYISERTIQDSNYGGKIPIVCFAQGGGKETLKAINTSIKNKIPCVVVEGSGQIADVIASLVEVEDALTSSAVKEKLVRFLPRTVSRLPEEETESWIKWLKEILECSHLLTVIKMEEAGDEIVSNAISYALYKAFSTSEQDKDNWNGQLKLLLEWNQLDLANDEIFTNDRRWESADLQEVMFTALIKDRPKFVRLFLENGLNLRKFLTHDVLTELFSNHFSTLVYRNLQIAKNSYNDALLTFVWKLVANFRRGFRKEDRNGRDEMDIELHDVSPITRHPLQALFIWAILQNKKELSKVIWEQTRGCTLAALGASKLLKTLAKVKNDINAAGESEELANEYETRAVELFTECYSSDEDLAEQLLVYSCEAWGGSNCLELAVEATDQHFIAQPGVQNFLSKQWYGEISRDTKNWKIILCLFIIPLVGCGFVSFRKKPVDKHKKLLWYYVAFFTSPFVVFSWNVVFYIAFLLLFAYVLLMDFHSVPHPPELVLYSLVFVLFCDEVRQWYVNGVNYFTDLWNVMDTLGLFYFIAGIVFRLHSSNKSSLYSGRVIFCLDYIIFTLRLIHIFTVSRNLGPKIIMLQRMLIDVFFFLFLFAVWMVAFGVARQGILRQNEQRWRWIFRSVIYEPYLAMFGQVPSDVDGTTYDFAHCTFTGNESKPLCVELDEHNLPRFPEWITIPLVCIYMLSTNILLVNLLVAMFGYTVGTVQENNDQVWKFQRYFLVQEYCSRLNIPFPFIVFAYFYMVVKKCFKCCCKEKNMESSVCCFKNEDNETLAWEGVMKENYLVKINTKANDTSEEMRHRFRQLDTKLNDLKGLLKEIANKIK
The test is described as follows: whole-cell patch-clamp of hTRPM8 currents activated by menthol. The settings on record: ROSA 50 μM; agonist menthol 30 μM (legend: 500 μM). As to the method:
as §1, §2

Changes are numbered by the printed parent chain. Where two headings read alike, the source gives them in different places.

Turning to `O=C(/C=C/c1ccc(O)c(O)c1)O[C@H](Cc1ccc(O)c(O)c1)C(=O)O` [ROSA, rosmarinic acid], the “single-channel open probability, T665A mutant” value on TRPV3 T665A is given as 0.69. This molecule also registered an IC50 on hTRPV3 of 12.4 ± 4.2 µM. The inhibition at 50 µM at hTRPV3 (HEK-293T, ROSA 50 μM, Fig. 2G, read-out: inhibition of TRPV3 currents) was about 74.3%; on hTRPV3 (HEK-293T, compound 50 μM, Fig. 3I, n = 4-5, read-out: inhibition of hTRPV3 currents) it was about 75.3%. At hTRPV3 (HEK-293T, ROSA 100 μM, 2-APB, WT, read-out: inhibition of macroscopic WT hTRPV3 currents), the inhibition at 100 µM was 87%. On hTRPM8, the “inhibition of TRPM8 currents” value was 0.7 ± 6.7%.
